# Experimental data as given in patent US11767310B2, “Nicotinamide RIPK1 inhibitors” (AbbVie Inc., priority 2021, dated 2023).
# Read-outs that look alike come from different tables or passages of the source.
# How the values were obtained:
# Test in all cases: Kinase binding screen
# Settings in all cases: read-out: Percent Control at 100 nM Compound Concentration
# PIKFYVE = PIKFYVE (Homo sapiens (Human), UniProt Q9Y2I7)
# EGFR(S752-I759del) = EGFR(S752-I759del) (Homo sapiens (Human), UniProt P00533, DEL752-759)
# FLT3(N841I) = FLT3(N841I) (Homo sapiens (Human), UniProt P36888, N841I)
# ERK2 = ERK2 (Homo sapiens (Human), UniProt P28482)
# DCAMKL3 = DCAMKL3 (Homo sapiens (Human), UniProt Q9C098)
# TLK1 = TLK1 (Homo sapiens (Human), UniProt Q9UKI8)
# FGFR2 = FGFR2 (Homo sapiens (Human), UniProt P21802)
# PRKD3 = PRKD3 (Homo sapiens (Human), UniProt O94806)
# ACVR2B = ACVR2B (Homo sapiens (Human), UniProt Q13705)
# FYN = FYN (Homo sapiens (Human), UniProt P06241)
# [1] = target: RPS6KA4(Kin.Dom.1-N-terminal) (Homo sapiens (Human), UniProt O75676)
# KIT(V559D,V654A) = KIT(V559D,V654A) (Homo sapiens (Human), UniProt P10721, V559D/V654A)
# BRK = BRK (Homo sapiens (Human), UniProt Q13882)
# IRAK4 = IRAK4 (Homo sapiens (Human), UniProt Q9NWZ3)
# CAMKK2 = CAMKK2 (Homo sapiens (Human), UniProt Q96RR4)
# PHKG2 = PHKG2 (Homo sapiens (Human), UniProt P15735)
# ERK1 = ERK1 (Homo sapiens (Human), UniProt P27361)
# IKK-beta = IKK-beta (Homo sapiens (Human), UniProt O14920)
# [2] = target: EGFR(L747-E749del, A750P) (Homo sapiens (Human), UniProt P00533, A750P/DEL747-749)
# BMX = BMX (Homo sapiens (Human), UniProt P51813)
# MST1R = MST1R (Homo sapiens (Human), UniProt Q04912)
# ERK5 = ERK5 (Homo sapiens (Human), UniProt Q13164)
# FGFR3(G697C) = FGFR3(G697C) (Homo sapiens (Human), UniProt P22607, G697C)
# INSRR = INSRR (Homo sapiens (Human), UniProt P14616)
# [3] = target: ABL1(Q252H)-nonphosphorylated (Homo sapiens (Human), UniProt P00519, Q252H)
# TRKC = TRKC (Homo sapiens (Human), UniProt Q16288)
# PRKCH = PRKCH (Homo sapiens (Human), UniProt P24723)
# p38-gamma = p38-gamma (Homo sapiens (Human), UniProt P53778)
# Chain of EGFR(L747-E749del, A750P) (P00533 other isoform, or with tags, fused parts or gaps A750P/del L747-E749): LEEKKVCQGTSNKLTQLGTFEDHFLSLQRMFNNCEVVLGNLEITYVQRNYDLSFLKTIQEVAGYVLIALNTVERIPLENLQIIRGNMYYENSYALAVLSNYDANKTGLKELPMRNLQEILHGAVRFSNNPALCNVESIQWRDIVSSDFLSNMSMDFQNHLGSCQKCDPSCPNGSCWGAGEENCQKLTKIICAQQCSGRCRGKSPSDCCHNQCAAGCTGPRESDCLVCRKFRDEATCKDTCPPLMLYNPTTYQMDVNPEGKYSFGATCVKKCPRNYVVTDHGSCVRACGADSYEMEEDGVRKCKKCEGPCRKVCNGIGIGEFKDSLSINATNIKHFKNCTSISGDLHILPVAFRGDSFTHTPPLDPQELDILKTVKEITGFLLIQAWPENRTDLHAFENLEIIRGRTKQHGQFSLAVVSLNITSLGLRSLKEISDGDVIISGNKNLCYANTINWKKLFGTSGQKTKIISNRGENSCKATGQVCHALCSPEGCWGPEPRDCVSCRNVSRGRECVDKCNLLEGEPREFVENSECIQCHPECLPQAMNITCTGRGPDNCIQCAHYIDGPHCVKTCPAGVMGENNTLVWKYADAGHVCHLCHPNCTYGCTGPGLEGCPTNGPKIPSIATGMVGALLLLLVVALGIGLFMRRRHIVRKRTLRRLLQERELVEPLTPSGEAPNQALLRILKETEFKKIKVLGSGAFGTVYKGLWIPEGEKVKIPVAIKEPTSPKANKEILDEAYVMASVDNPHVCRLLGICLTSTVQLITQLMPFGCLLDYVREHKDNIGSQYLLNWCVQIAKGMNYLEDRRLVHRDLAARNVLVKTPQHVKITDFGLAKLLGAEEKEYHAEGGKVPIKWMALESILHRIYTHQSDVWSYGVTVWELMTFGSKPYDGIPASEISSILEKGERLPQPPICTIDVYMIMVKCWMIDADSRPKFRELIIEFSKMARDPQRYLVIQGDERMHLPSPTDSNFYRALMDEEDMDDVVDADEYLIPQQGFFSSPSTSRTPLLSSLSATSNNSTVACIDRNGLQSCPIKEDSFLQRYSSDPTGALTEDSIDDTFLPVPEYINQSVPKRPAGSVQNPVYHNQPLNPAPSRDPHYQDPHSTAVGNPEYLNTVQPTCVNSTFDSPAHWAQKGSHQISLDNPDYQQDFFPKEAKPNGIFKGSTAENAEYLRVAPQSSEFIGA
# Chain of DCAMKL3 (Q9C098 whole entry, looked up): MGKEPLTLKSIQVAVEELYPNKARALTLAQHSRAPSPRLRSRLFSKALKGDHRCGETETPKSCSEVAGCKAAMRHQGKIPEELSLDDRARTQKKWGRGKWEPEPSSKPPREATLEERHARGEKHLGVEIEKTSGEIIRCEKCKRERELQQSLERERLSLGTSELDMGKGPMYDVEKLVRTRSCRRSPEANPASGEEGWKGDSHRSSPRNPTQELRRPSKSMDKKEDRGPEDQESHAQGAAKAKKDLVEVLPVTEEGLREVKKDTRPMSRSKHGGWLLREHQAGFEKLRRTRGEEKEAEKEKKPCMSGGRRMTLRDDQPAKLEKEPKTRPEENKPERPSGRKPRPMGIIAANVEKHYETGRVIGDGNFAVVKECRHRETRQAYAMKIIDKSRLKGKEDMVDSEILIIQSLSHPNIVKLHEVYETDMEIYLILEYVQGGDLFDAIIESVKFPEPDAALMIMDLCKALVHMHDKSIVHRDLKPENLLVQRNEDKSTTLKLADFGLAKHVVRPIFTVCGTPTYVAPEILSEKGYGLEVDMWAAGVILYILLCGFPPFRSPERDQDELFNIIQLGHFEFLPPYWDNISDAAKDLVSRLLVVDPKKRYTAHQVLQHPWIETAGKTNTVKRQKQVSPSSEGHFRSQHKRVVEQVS
# Chain of PHKG2 (P15735 whole entry): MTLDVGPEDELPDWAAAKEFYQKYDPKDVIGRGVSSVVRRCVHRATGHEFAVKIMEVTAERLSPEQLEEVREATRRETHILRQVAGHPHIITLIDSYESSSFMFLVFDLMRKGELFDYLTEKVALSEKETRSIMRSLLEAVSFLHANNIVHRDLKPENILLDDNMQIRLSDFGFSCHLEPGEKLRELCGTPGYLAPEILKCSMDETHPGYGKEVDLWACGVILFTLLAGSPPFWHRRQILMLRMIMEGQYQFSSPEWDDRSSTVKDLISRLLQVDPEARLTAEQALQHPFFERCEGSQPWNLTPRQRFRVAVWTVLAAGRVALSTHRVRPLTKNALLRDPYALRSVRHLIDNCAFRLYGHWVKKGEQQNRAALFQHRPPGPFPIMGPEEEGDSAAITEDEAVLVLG
# Chain of PRKCH (P24723 whole entry): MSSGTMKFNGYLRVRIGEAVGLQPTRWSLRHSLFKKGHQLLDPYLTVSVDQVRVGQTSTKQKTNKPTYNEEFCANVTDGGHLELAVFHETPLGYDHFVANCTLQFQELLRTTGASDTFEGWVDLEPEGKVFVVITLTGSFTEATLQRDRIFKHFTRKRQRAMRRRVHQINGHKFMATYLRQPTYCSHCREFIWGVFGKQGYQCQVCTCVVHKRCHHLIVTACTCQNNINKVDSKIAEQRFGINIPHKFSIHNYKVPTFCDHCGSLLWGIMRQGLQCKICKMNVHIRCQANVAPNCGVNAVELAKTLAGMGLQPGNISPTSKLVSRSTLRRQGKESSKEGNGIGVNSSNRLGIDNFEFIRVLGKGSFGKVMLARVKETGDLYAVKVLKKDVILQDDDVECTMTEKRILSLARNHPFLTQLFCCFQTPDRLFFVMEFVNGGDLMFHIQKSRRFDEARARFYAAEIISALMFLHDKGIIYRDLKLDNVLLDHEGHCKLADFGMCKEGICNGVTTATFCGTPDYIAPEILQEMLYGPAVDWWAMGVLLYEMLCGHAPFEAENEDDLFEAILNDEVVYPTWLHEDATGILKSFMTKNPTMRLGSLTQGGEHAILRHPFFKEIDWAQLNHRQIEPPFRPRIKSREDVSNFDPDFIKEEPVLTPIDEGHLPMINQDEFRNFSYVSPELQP
# Chain of MST1R (Q04912 25-1400): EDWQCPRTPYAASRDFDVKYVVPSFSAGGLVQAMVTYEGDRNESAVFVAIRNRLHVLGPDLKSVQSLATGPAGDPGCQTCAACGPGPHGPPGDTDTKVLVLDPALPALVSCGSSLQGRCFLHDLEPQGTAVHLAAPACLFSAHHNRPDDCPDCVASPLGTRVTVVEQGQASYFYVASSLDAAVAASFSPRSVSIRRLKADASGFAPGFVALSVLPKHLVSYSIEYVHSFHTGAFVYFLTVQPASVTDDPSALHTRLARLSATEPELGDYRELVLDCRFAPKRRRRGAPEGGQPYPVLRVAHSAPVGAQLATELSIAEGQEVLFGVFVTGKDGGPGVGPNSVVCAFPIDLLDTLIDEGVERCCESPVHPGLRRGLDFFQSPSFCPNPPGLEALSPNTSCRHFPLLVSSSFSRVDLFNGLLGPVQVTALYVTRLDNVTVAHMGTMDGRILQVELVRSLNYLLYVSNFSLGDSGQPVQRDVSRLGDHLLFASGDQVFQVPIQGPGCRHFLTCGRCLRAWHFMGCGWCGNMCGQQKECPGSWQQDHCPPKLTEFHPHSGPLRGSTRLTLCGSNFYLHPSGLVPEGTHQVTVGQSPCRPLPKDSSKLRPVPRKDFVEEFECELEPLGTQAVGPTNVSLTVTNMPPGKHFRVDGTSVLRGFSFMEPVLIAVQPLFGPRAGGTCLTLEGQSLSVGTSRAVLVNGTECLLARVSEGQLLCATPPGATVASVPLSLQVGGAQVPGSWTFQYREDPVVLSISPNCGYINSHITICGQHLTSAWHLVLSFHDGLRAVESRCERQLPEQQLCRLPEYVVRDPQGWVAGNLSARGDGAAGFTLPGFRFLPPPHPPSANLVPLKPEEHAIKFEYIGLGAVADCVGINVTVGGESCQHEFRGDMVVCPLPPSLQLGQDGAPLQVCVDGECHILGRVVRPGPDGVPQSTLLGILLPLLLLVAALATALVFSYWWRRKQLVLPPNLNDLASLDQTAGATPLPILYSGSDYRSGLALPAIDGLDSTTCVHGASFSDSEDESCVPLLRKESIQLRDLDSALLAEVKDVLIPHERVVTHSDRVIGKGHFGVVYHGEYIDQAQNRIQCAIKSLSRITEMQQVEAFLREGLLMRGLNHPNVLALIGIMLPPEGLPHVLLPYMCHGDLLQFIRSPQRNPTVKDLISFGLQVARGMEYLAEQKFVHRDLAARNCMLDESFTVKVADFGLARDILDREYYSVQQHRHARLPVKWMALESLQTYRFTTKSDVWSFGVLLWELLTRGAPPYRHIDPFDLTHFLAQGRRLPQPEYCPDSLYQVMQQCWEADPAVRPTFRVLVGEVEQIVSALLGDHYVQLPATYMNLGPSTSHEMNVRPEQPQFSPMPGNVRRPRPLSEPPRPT
# Chain of ACVR2B (Q13705 19-512): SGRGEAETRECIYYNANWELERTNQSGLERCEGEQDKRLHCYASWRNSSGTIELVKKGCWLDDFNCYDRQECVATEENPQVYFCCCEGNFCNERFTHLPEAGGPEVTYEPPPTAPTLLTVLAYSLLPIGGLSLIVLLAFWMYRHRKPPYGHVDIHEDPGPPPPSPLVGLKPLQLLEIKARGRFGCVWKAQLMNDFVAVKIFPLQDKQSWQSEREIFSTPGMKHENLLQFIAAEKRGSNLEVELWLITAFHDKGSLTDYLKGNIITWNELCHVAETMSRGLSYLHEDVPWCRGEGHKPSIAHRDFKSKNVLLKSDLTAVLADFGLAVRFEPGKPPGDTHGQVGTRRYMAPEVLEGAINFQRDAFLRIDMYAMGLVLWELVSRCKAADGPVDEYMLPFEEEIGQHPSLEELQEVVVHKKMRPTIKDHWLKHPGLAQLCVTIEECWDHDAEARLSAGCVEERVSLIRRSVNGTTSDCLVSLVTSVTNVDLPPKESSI
# Chain of RPS6KA4(Kin.Dom.1-N-terminal) (O75676 33-301): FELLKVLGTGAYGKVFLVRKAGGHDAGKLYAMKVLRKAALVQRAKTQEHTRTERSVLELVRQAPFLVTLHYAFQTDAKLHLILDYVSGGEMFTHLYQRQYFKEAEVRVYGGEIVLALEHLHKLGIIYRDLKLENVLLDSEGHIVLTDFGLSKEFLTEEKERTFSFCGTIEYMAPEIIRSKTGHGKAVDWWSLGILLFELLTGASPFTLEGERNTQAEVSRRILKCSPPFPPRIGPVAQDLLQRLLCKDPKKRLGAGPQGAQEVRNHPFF
smiles,measurement,setting,value
"CN(C[C@H](Cc1ccccc1)OP(=O)(O)O)C(=O)c1cncc(C#Cc2cnn(C(F)F)c2)c1 [Example 19, (S)-1-(5-((1-(difluoromethyl)-1H-pyrazol-4-yl)ethynyl)-N-methylnicotinamido)-3-phenylpropan-2-yl dihydrogen phosphate]",remaining activity at 0.1 µM,PIKFYVE,57%
same,remaining activity at 0.1 µM,EGFR(S752-I759del),100%
same,remaining activity at 0.1 µM,FLT3(N841I),96%
same,remaining activity at 0.1 µM,ERK2,100%
same,remaining activity at 0.1 µM,DCAMKL3,100%
same,remaining activity at 0.1 µM,TLK1,100%
same,remaining activity at 0.1 µM,FGFR2,100%
same,remaining activity at 0.1 µM,PRKD3,100%
same,remaining activity at 0.1 µM,ACVR2B,99%
same,remaining activity at 0.1 µM,FYN,100%
same,remaining activity at 0.1 µM,[1],100%
same,remaining activity at 0.1 µM,"KIT(V559D,V654A)",100%
same,remaining activity at 0.1 µM,BRK,100%
same,remaining activity at 0.1 µM,IRAK4,83%
same,remaining activity at 0.1 µM,CAMKK2,100%
same,remaining activity at 0.1 µM,PHKG2,100%
same,remaining activity at 0.1 µM,ERK1,95%
same,remaining activity at 0.1 µM,IKK-beta,96%
same,remaining activity at 0.1 µM,[2],84%
same,remaining activity at 0.1 µM,BMX,100%
same,remaining activity at 0.1 µM,MST1R,92%
same,remaining activity at 0.1 µM,ERK5,100%
same,remaining activity at 0.1 µM,FGFR3(G697C),100%
same,remaining activity at 0.1 µM,INSRR,100%
same,remaining activity at 0.1 µM,[3],100%
same,remaining activity at 0.1 µM,TRKC,68%
same,remaining activity at 0.1 µM,PRKCH,91%
same,remaining activity at 0.1 µM,p38-gamma,88%
"CN(C[C@@H](O)Cc1ccccc1)C(=O)c1cncc(C#Cc2cnn(C(F)F)c2)c1 [Example 2, (S)-5-((1-(difluoromethyl)-1H-pyrazol-4-yl)ethynyl)-N-(2-hydroxy-3-phenylpropyl)-N-methylnicotinamide]",remaining activity at 0.1 µM,PIKFYVE; PIKFYVE,57%
same,remaining activity at 0.1 µM,EGFR(S752-I759del); EGFR(S752-I759del),100%
same,remaining activity at 0.1 µM,FLT3(N841I); FLT3(N841I),99%
same,remaining activity at 0.1 µM,ERK2; ERK2,100%
same,remaining activity at 0.1 µM,DCAMKL3; DCAMKL3,100%
same,remaining activity at 0.1 µM,TLK1; TLK1,100%
same,remaining activity at 0.1 µM,FGFR2; FGFR2,100%
same,remaining activity at 0.1 µM,PRKD3; PRKD3,100%
same,remaining activity at 0.1 µM,ACVR2B; ACVR2B,91%
same,remaining activity at 0.1 µM,FYN; FYN,100%
same,remaining activity at 0.1 µM,[1]; RPS6KA4(Kin.Dom.1-N-terminal),97%
same,remaining activity at 0.1 µM,"KIT(V559D,V654A); KIT(V559D,V654A)",94%
same,remaining activity at 0.1 µM,BRK; BRK,100%
same,remaining activity at 0.1 µM,IRAK4; IRAK4,91%
same,remaining activity at 0.1 µM,CAMKK2; CAMKK2,99%
same,remaining activity at 0.1 µM,PHKG2; PHKG2,100%
same,remaining activity at 0.1 µM,ERK1; ERK1,97%
same,remaining activity at 0.1 µM,IKK-beta; IKK-beta,96%
same,remaining activity at 0.1 µM,"[2]; EGFR(L747-E749del, A750P)",100%
same,remaining activity at 0.1 µM,BMX; BMX,100%
same,remaining activity at 0.1 µM,MST1R; MST1R,98%
same,remaining activity at 0.1 µM,ERK5; ERK5,100%
same,remaining activity at 0.1 µM,FGFR3(G697C); FGFR3(G697C),100%
same,remaining activity at 0.1 µM,INSRR; INSRR,100%
same,remaining activity at 0.1 µM,[3]; ABL1(Q252H)-nonphosphorylated,92%
same,remaining activity at 0.1 µM,TRKC; TRKC,100%
same,remaining activity at 0.1 µM,PRKCH; PRKCH,100%
same,remaining activity at 0.1 µM,p38-gamma; p38-gamma,100%
